Laboratory results taken from ChEMBL document CHEMBL1153498, “Aerobic oxidation of indolomorphinan without the 4,5-epoxy bridge and subsequent rearrangement of the oxidation product to spiroindolinonyl-C-normorphinan derivative” (Bioorg Med Chem, 2009).

Legend:
[1] = molecular target: Kappa-type opioid receptor (Cavia porcellus, UniProt P41144); assay: Displacement of […] from Hartley guinea pig kappa opioid receptor by liquid scintillation counter
Mu-type opioid receptor = Mu-type opioid receptor (Cavia porcellus, UniProt P97266); assay: Displacement of [3H]DAMGO from Hartley guinea pig mu opioid receptor by liquid scintillation counter
Chain of Mu-type opioid receptor (P97266 whole entry): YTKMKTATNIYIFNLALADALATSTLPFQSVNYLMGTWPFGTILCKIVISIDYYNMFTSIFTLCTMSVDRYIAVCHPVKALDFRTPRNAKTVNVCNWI

[2] = Displacement of [3H]NTI from Hartley guinea pig delta opioid receptor by liquid scintillation counter; parameters: species or system Cavia porcellus

Chain of Kappa-type opioid receptor (P41144 whole entry): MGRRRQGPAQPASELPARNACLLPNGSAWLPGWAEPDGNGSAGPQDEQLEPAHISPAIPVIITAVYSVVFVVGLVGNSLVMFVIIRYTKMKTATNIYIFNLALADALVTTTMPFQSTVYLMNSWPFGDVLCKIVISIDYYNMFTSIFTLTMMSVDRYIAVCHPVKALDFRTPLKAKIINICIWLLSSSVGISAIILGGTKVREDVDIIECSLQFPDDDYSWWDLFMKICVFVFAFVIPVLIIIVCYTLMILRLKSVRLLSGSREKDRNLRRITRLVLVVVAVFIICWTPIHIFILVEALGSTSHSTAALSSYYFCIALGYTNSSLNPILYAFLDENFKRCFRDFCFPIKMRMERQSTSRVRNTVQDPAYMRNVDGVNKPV

SMILES | Ki [1] [nM] | Ki (Mu-type opioid receptor) [nM] | Ki [2] [nM]
O=C1c2ccccc2N[C@@]12C[C@]13CCN(CC4CC4)[C@H](Cc4ccc(O)cc41)[C@]3(O)C2 | 13.4 | 0.75 | 2.9
CN1CC[C@]23c4c5ccc(O)c4O[C@H]2C(=O)C2(Cc4ccccc4C2)C[C@@]3(O)[C@H]1C5 [SPIROINDANYLOXYMORPHONE] | – | – | 1.4
